Entries after “also recorded” stand apart in the source; their conditions may differ.
Columns and labels:
skin perfusion [1] = test: Laser speckle contrast analysis (LASCA) of skin perfusion in pigs; type: in vivo, pig; conditions: anesthetized pigs, intradermal injection in neck, niacinamide 170 mM, 1-methyl-niacinamide 170 mM, prostaglandin E1 10 μg/ml, 0–15 min, n=4
Procedure: Formulations of prostaglandin E1 (10 μg/ml), niacinamide (170 mM) or saline were injected intradermally in the neck area of anesthetized pigs. A PeriCam PSI system (Perimed, Sweden) was used to record one image per second for approximately 15 min. Perfusion units per min were compared using one-way ANOVA.
Niacinamide increases subcutaneous blood flow in pigs
Video: Representative LASCA perfusion experiment.
LASCA images were recorded following intradermal injection of saline, prostaglandin E1 and niacinamide formulations into the neck area of anesthetized pigs. Saline (170 mM NaCl, 10 mM phosphate, pH 7.4) was injected into region 1 (blue) and 6 (black), 10 µg/ml prostaglandin E1 (170 mM NaCl, 10 mM phosphate, pH 7.4) was injected into region 2 (red), 170 mM niacinamide (85 mM NaCl, 10 mM phosphate, pH 7.4) was […]
was necessary). Compound x (region 4, dark red) was an additional compound studied for vasodilation but is not included in the present analysis.
(1 picture or pasted object on this page, not shown here)

[2] = test system: porcine subcutaneous arteries; test: Ex vivo vasorelaxation of U46619-preconstricted arteries (wire myograph); parameters: species or system pig; conditions: isolated porcine subcutaneous arteries preconstricted with U46619 (1 μM); for Effect on vascular tone (vasorelaxation): niacinamide at 200 mM, 1-methyl-niacinamide cumulative concentrations, two animals
Procedure: Vessels were cut into 1.5 mm cylindrical segments, threaded onto two 40 μm diameter stainless steel wires and mounted on a Mulvany-Halpern myograph (Danish Myograph Technology, A/S). […] Contractile force was recorded via a PowerLab unit and Labchart software (AD Instruments). Vessels were pre-stretched in calcium-free PSS to a lumen diameter of 0.9 × L100, where L100 is an estimate of the diameter of the vessel under a passive transmural pressure of 100 mmHg. This was performed using the normalization module in LabChart7.

[3] = test system: regional subcutaneous blood flow; test: Xenon-133 washout after injection into the neck of pigs; type: in vivo, pig; conditions: vehicle without insulin aspart, niacinamide 170 mM (n=21), prostaglandin E1 4 μg/ml (n=8), mean (±SD), saline –0.71
Procedure: For each experiment, an insulin aspart containing vehicle was injected on one side of a pig, while the same vehicle without insulin aspart was injected into the other side. Prostaglandin E1 was included as a positive control. A gamma sensor was mounted over each injection site to measure the decay in Xe-133 signal. […] Regression line slopes in the 0–15 min interval were compared using one-way analysis of variance (ANOVA).

[4] = Disappearance of niacinamide and 1-methyl-niacinamide from subcutaneous injection depots in pigs (tissue sampling, LC-MS/MS); conditions: 170 mM, 50 μl, LC-MS/MS of tissue homogenate, n=9
Procedure: Pigs (70–90 kg) were anesthetized using Zoletil mixture (1 mg/10 kg; Virbac, Denmark) with intravenous supplement of propolipid (Fresenius Kabi, Sweden). […] Tissue samples measuring ~2 x 2 cm were excised at 0 min (acute), 2, 5, 15 or 60 min after injection and immediately frozen in 2-methyl-butane. […] Following euthanasia by overdose of pentobarbital (Lundbeck, Denmark), tissue samples measuring ~10 x 10 cm were excised and injected to obtain ex vivo 0 min (acute) and 60 min depots.
Tissue samples were cut into smaller blocks, thawed and diluted with phosphate buffer (180 mM; pH 7.4) at a ratio of 3 ml to 1 g of tissue. Tissue was homogenized with two cycles (one cycle consisting of 10 sec homogenization, 60 sec pause, 10 sec homogenization) at 8800 rpm (Precellys Evolution homogenizer, Bertin Instruments, France) or until the sample was considered homogenized.
Protein was precipitated from the tissue homogenate by adding three volumes of acetonitrile. Samples were centrifuged for 30 min at 4°C and the supernatants analyzed on a QTRAP® Triple Quadrupole coupled with an Acquity liquid chromatography system (Waters, USA).

skin perfusion [5] = test: Laser Doppler imaging (LDI) of skin perfusion in pigs; type: in vivo, pig; conditions: anesthetized pigs, subcutaneous injection at 3 mm depth, niacinamide 170 mM, prostaglandin E1 10 μg/ml, baseline corrected, n=4
Procedure: LDI (moorLDI2-IR, Moor Instruments, UK) was used to record a series of images (approximately one image per 3.5 min for approximately 30 min) following a protocol in anesthetized pigs similar to the one used for LASCA. Due to the increased skin penetration depth of the LDI system, subcutaneous injections were performed at a 3 mm depth using a 32G needle. Injections were performed in areas that could be scanned in the same image.

Row | SMILES | Skin perfusion by LASCA compared with saline (skin perfusion [1]) | Effect on vascular tone (vasorelaxation) [2] | EC50 ([2]; Sus scrofa, sc, cumulative 1 μM–200 mM, PSS 37°C pH 7.4, six animals) [mM] | Xe-133 washout regression line slope, 0–15 min interval [3] | Amount remaining in subcutaneous depot 60 min post-injection [4] | Skin perfusion by LDI compared with saline (skin perfusion [5])
1 | C[n+]1cccc(C(N)=O)c1 [1-methyl-niacinamide] | did not increase the LASCA signal | no substantial effect on vascular tone; also recorded: vasorelaxation was not detected |  |  |  | 
2 | NC(=O)c1cccnc1 [niacinamide] | intermediate increase | maximal vasorelaxation | 11.3 | –1.24 % per min | decreased to amounts comparable to the blank control | increased skin perfusion
3 | CCCCC[C@H](O)/C=C/[C@H]1[C@H](O)CC(=O)[C@@H]1CCCCCCC(=O)O [prostaglandin E1] | clear increase in skin perfusion |  |  | –2.47 % per min |  | increased skin perfusion
